# Experimental data reported in US11051515B2, “3-acyl-benzamides and their use as herbicides” (Bayer Aktiengesellschaft, priority 2017, dated 2021).
# Tests used:
# [1] = system: AVEFA; assay: Pre-emergence action against AVEFA; type: in vivo, Avena fatua; conditions: Avena fatua, 504 h, dosage 320 g/ha, scored visually after 3 weeks vs untreated controls, read-out: Pre-emergence action against AVEFA (herbicidal activity)
# In short: (§1)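 Seeds sown in sandy loam in wood-fiber pots and covered with soil. Greenhouse growth; visual damage scored after 3 weeks versus untreated controls (100% = dead, 0% = like control).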
# [2] = system: ABUTH; assay: Post-emergence action against ABUTH; type: in vivo, Abutilon theophrasti; conditions: Abutilon theophrasti, 504 h; post-emergence, dosage 80 g/ha, visual assessment about 3 weeks after treatment vs untreated controls; read-out: Post-emergence action against ABUTH (herbicidal action in percent)
# In short: (§2)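 Post-emergence foliar spray on greenhouse plants at the one-leaf stage, using wettable-powder or emulsion-concentrate formulations in water (600 to […], plus 0.2% wetting agent). Damage scored by eye roughly 3 weeks later against untreated plants: 0% = like control, 100% = dead.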
# [3] = system: AMARE; assay: Pre-emergence action against AMARE; type: in vivo, Amaranthus retroflexus; conditions: Amaranthus retroflexus, 504 h; pre-emergence, dosage 320 g/ha, scored visually after 3 weeks vs untreated controls; read-out: Pre-emergence action against AMARE (herbicidal activity)
# In short: as §1
# [4] = system: MATIN; assay: Pre-emergence action against MATIN; type: in vivo, Matricaria inodora; conditions: Tripleurospermum inodorum, 504 h; Dosage 320 g/ha, pre-emergence
# In short: as §1
# [5] = system: SETVI; assay: Post-emergence action against SETVI; type: in vivo, Setaria viridis; conditions: Setaria viridis, 504 h; post-emergence, dosage 80 g/ha, visual assessment about 3 weeks after treatment vs untreated controls; read-out: Post-emergence action against SETVI (herbicidal action in percent)
# In short: as §2
# [6] = system: AMARE; assay: Post-emergence action against AMARE; type: in vivo, Amaranthus retroflexus; conditions: Amaranthus retroflexus, 504 h; post-emergence, dosage 80 g/ha, visual assessment about 3 weeks after treatment vs untreated controls; read-out: Post-emergence action against AMARE (herbicidal action in percent)
# In short: as §2
# [7] = system: PHBPU; assay: Pre-emergence action against PHBPU; type: in vivo, Pharbitis purpurea; conditions: Ipomoea purpurea, 504 h; Dosage 320 g/ha, pre-emergence
# In short: as §1
# [8] = system: POLCO; assay: Pre-emergence action against POLCO; type: in vivo, Polygonum convolvulus; conditions: Fallopia convolvulus, 504 h; Dosage 320 g/ha, pre-emergence
# In short: as §1
# [9] = system: ECHCG; assay: Post-emergence action against ECHCG; type: in vivo, Echinochloa crus-galli; conditions: Echinochloa crus-galli, 504 h; post-emergence, dosage 80 g/ha, visual assessment about 3 weeks after treatment vs untreated controls; read-out: Post-emergence action against ECHCG (herbicidal action in percent)
# In short: as §2
# [10] = system: VERPE; assay: Pre-emergence action against VERPE; type: in vivo, Veronica persica; conditions: Veronica persica, 504 h; Dosage 320 g/ha, pre-emergence
# In short: as §1
# [11] = system: MATIN; assay: Post-emergence action against MATIN; type: in vivo, Matricaria inodora; conditions: Tripleurospermum inodorum, 504 h; post-emergence, dosage 80 g/ha, visual assessment about 3 weeks after treatment vs untreated controls; read-out: Post-emergence action against MATIN (herbicidal action in percent)
# In short: as §2
# [12] = system: POLCO; assay: Post-emergence action against POLCO; type: in vivo, Polygonum convolvulus; conditions: Fallopia convolvulus, 504 h; post-emergence, dosage 80 g/ha
# In short: as §2
# [13] = system: AVEFA; assay: Post-emergence action against AVEFA; type: in vivo, Avena fatua; conditions: Avena fatua, 504 h; post-emergence, dosage 80 g/ha, visual assessment about 3 weeks after treatment vs untreated controls; read-out: Post-emergence action against AVEFA (herbicidal action in percent)
# In short: as §2
# [14] = system: CYPES; assay: Post-emergence action against CYPES; type: in vivo, Cyperus esculentus; conditions: Cyperus esculentus, 504 h; post-emergence, dosage 80 g/ha, visual assessment about 3 weeks after treatment vs untreated controls; read-out: Post-emergence action against CYPES (herbicidal action in percent)
# In short: as §2
# [15] = system: SETVI; assay: Pre-emergence action against SETVI; type: in vivo, Setaria viridis; conditions: Setaria viridis, 504 h; pre-emergence, dosage 320 g/ha, scored visually after 3 weeks vs untreated controls; read-out: SETVI (Table B8, pre-emergence herbicidal activity)
# In short: as §1
# [16] = system: VIOTR; assay: Post-emergence action against VIOTR; type: in vivo, Viola tricolor; conditions: Viola tricolor, 504 h; post-emergence, dosage 80 g/ha
# In short: as §2
# [17] = system: VIOTR; assay: Pre-emergence action against VIOTR; type: in vivo, Viola tricolor; conditions: Viola tricolor, 504 h; Dosage 320 g/ha, pre-emergence
# In short: as §1
# [18] = system: VERPE; assay: Post-emergence action against VERPE; type: in vivo, Veronica persica; conditions: Veronica persica, 504 h, dosage 80 g/ha
# In short: as §2
# [19] = system: ABUTH; assay: Pre-emergence action against ABUTH; type: in vivo, Abutilon theophrasti; conditions: Abutilon theophrasti, 504 h; pre-emergence, dosage 320 g/ha, scored visually after 3 weeks vs untreated controls; read-out: Pre-emergence action against ABUTH (herbicidal activity)
# In short: as §1
smiles,measurement,setting,value
COc1c(C(=O)Nc2nnnn2C)ccc(C(F)(F)F)c1C(=O)C1CC1 [1-50],pest or weed control at 320 g/ha,[1],100%
same,pest or weed control at 80 g/ha,[2],100%
same,pest or weed control at 320 g/ha,[3],100%
same,pest or weed control at 320 g/ha,[4],100%
same,pest or weed control at 80 g/ha,[5],100%
same,pest or weed control at 80 g/ha,[6],90%
same,pest or weed control at 320 g/ha,[7],100%
same,pest or weed control at 320 g/ha,[8],90%
same,pest or weed control at 80 g/ha,[9],90%
same,pest or weed control at 320 g/ha,[10],100%
same,pest or weed control at 80 g/ha,[11],100%
same,pest or weed control at 80 g/ha,[12],100%
same,pest or weed control at 80 g/ha,[13],100%
same,pest or weed control at 80 g/ha,[14],80%
same,pest or weed control at 320 g/ha,[15],100%
same,pest or weed control at 80 g/ha,[16],100%
same,pest or weed control at 320 g/ha,[17],100%
same,pest or weed control at 80 g/ha,[18],100%
same,pest or weed control at 320 g/ha,[19],100%
